Common to all, as to assay type: cell-based
For one assay, the system named is H-460. The assay can be described thus: MTT assay at 72 hr. To be noted: Homo sapiens, NCI-H460, read-out: IC50 (MTT at 72 hr) H-460, 24 h exposure, single experiments.
In another assay the test system is SF-268. The assay can be described thus: MTT assay at 72 hr. Conditions: Homo sapiens, SF-268, read-out: IC50 (MTT at 72 hr) SF-268, 24 h exposure, single experiments. In general terms: Tetrazolium dyes change colour on reduction, which living cells bring about.
For the next assay, the system named is CEM/dCK-. Put plainly: MMT or WST-1 assay at 72 hr.
The next assay has as its system MCF-7. The assay can be described thus: MTT assay at 72 hr. Conditions: Homo sapiens, MCF7, read-out: IC50 (MTT at 72 hr) MCF-7, 24 h exposure, single experiments.
In a further assay the test system is CCRF-CEM. The assay can be described thus: MMT or WST-1 assay at 72 hr. Conditions: Homo sapiens, read-out: IC50 (MMT or WST-1 at 72 hr) CCRF-CEM, 24 h exposure, single experiments.
A short description of assay [1]: 3H-Thymidine Incorporation Assay (24 hr drug, wash, another 48 hr; 72 hr assay). Conditions: 24 hr exposure to drug, wash, another 48 hr. On the technique in general: Incorporation of labelled thymidine or its analogues reports DNA synthesis.

Like-named read-outs stand apart in the source and are kept apart here.

Regarding `Nc1ccn([C@@H]2CO[C@H](COC(=O)C34CCC[C@@H]5C[C@@H]3C[C@H]5C4)O2)c(=O)n1` [Compound 232, HEXAHYDRO-2,5-METHANO-PENTA- LENE-3A-CARBOXYLIC ACID 4-(4-AMINO-2-OXO-2H-PYRIMI- DIN-1-YL)-[1,3]DI- OXOLAN-2-YL METHYL ESTER], the IC50 in the assay with H-460 was found to be 6.9 nM; in the assay with SF-268, 160 nM; in the assay on CEM/dCK- (read-out: IC50 (MMT or WST-1 at 72 hr) CEM/dCK-, 24 h exposure, single experiments) it was 2100 nM; in the assay with MCF-7, 20 nM; in the assay with CCRF-CEM it was 10 nM; in assay [1] (CCRF-CEM, read-out: IC50 (3H-TdR incorporation at 72 hr) CCRF-CEM 24 h, CCRF-CEM T-cell leukemia), 3.7 nM. Also, the IC50 in assay [1] (CCRF-CEM, read-out: IC50 (3H-TdR incorporation at 72 hr) CEM/dCK- 24 h, CEM/dCK- (CCRF-CEM deoxycytidine kinase-deficient)) worked out at 5800 nM; in assay [1] (NCI-H460, read-out: IC50 (3H-TdR incorporation at 72 hr) H-460 24 h, H-460 human lung carcinoma), 0.53 nM; in assay [1] (read-out: IC50 (3H-TdR incorporation at 72 hr) CCRF-CEM 24 h, CCRF-CEM T-cell leukemia), 1.9 nM; in assay [1] (read-out: IC50 (3H-TdR incorporation at 72 hr) CEM/dCK- 24 h, CEM/dCK- (CCRF-CEM deoxycytidine kinase-deficient)) it was 4500 nM; in assay [1] (read-out: IC50 (3H-TdR incorporation at 72 hr) H-460 24 h, H-460 human lung carcinoma), 0.38 nM. Moreover, the “Resistance Factor” value with CEM/dCK- (CEM/dCK- versus CCRF-CEM) is reported as 210.

These data come from patent publication US20050256034A1, “Dioxolane analogs for improved inter-cellular delivery” (priority 2000, published 2005).
